Where “and” joins values, the source holds several entries; their conditions need not be identical. Equal entries are not always repeated. Where two headings read alike, the source gives them in different places.
Key:
[1] = in vivo
[2] = cited from earlier work
[3] = cited from earlier work; remark: listed apart in the source
[4] = In-vivo oral mucosal administration of CBD and TPH in mucoadhesive shell to pigs
Excerpt: 4.1.6 In-vivo experiment protocol: Domestic female pigs (sus scrofa domesticus) of 35 - 40 kg body weight were obtained from Lahav ltd. […] After arrival to the unit for experimental surgery at Hadassah Ein-Kerem medical center (Jerusalem, Israel) they were allowed to acclimate during a period of a week with free access to food and water, and were under veterinary surveillance. Pigs were fasted overnight before the experiments. On the morning of the experiment pigs were anesthetized by xylazine 1 mg/kg, midazolam 0.04 mg/kg, ketamine 5 mg/kg and propofol 4 mg/kg. They were positioned on their back. Endotracheal tube was inserted, and pigs were respired with oxygen. […] Catheter was inserted into the ear vein through which physiological saline was administered. Pigs received amoxicillin 15 mg/kg antibiotic and tolfenamic acid 2 mg/kg analgesic. An intra-jugular catheter was inserted for blood sampling. Pigs were constantly monitored for their respiration rate, rectal temperature, O2 saturation, heart rate and blood pressure. Cardiovascular parameters were obtained by blood pressure monitor with porcine adapted front leg cuff. […] A mucoadhesive “shell” was adhered to it and pressed with finger for 1 min, to ensure full adhesion. […] Visual inspection approved that the mucoadhesive “shell” was fully adhered to the mucosa and there were no leakages. […] Plasma was separated and stored at -80° C. pending analysis. At 8 hours mucoadhesive “shell” was removed, the mucosa was carefully cleaned with a gauze, so that no CBD and TPH will remain on its surface. At 12 hours pigs were euthanized by injection of overdose of KCl.
The samples were reconstituted in 100 µl 1:4 MeOH:DDW solution containing 0.01%^v/v formic acid and injected into LC-MS-MS.
4.1.9 Chromatographic analysis of CBD from in-vivo study: The chromatography was performed using a Thermo Scientific (San Jose, CA, USA) UHPLC System, which includes Dionex Pump with degasser module and an Accela Autosampler. […]

[5] = Ex-vivo permeability of APO, MTP and ATN in Ussing diffusion chamber; assay type: in vitro ADME, pig; conditions: for Papp at 0.1 mM: n=3
Excerpt: Each chamber includes a heating block for temperature control and needle valves for adjustment of carbogen gas flow for oxygenation and gas lift stirring. Buccal tissues of female pigs, ~100 kg, were used in the experiments. Pigs were exposed to anesthetic agents, antibiotics, contrast agents and sacrificed by over exposure to KC1. […] Immediately following euthanasia, buccal tissue was removed and placed in ice-cold modified Ringer’s buffer (pH 7.4). Buccal mucosa segments were trimmed to 800-1000 µm by surgical scissors and tweezers and mounted into Ussing diffusion chambers. The exposed tissue surface area was 0.5 cm^2 and buffered solutions volume in each cell was 3 ml. The system was preheated to 35° C. Modified Ringer buffer was added to the receiver compartment and simulated saliva buffer to the donor side. The tissue oxygenation and the solution mixing were performed by bubbling with carbogen gas. The system was equilibrated for 30 min followed by replacing the solutions and adding 20 µl of the test solutions to the donor side of the chamber to commence the experiment.
Solutions were freshly prepared on the days of the experiments. […] When testing the effect of organic solvents, 100 µl of the simulated saliva in the donor chamber were replaced by 100 µl of 1:1EtOH:PG solution. When testing the effect of NLF 70 µl of the simulated saliva in the donor chamber were replaced by 70 µl of NLF. […] The constituents are melted at 37° C. and mixed until a clear yellow homogenous solution is obtained.
3.1.3 Experimental protocol: 100 µl samples were taken from receiver compartment at the beginning of the experiments, at half an hour and every hour until the end of the experiments. 100 µl of fresh Ringer’s buffer solution were added each time to receiver compartment. The dilution of the concentration of tested substances in the receiver compartment was accounted for. […] All samples were stored at -20° C. pending analysis.
The analysis conditions were as follows: XTerra MS (Waters Inc.) C18 Column (3.5 µm, 2.1 mm × 100 mm), temperature 45° C., flow rate 0.2 ml/min and mobile phase with a linear gradient as detailed in Table 23.
Statistical significance was stated for p<0.05. […] Papp calculation and simulations of steady state plasma levels for in-vivo testing
Apparent permeability (Papp) is calculated by Eq. 5: […]

in vitro = conditions: female, pig, pH 7.4
Excerpt: Each chamber includes a heating block for temperature control and needle valves for adjustment of carbogen gas flow for oxygenation and gas lift stirring. Buccal tissues of female pigs, ~100 kg, were used in the experiments. […] Pigs were exposed to anesthetic agents, antibiotics, contrast agents and sacrificed by over exposure to KCl. […] Immediately following euthanasia, buccal tissue was removed and placed in ice-cold modified Ringer’s buffer (pH 7.4). Buccal mucosa segments were trimmed to 800-1000 µm by surgical scissors and tweezers and mounted into Ussing diffusional chambers. The exposed tissue surface area was 0.5 cm^2 and buffered solutions volume in each cell was 3 ml. The system was preheated to 35 (±1)°C. Modified Ringer’s buffer containing 4% bovine serum albumin was added to the receiver side and simulated saliva buffer to the donor side. The tissue oxygenation and the solution mixing were performed by bubbling with carbogen gas. The system was equilibrated for 30 min followed by replacing the solutions and adding 20 µl of the test solutions to the donor side of the chamber to commence the experiment.
4.1.12 Equations utilized: Apparent permeability (Papp) is calculated by Eq. 8: […]

[6] = Monitored vital parameters after CBD and TPH administration to the mucosa of pigs; assay type: in vivo, pig; conditions: median (lowest - highest)
Excerpt: Israel. […] Pigs were fasted overnight before the experiments. […] They were positioned on their back.

[7] = Insulin release from mucoadhesive tablets in physiologic media; assay type: physicochemical
Protocol: Peptides or proteins stabilized or encapsulated into nanoparticles, microparticles or liposomes were mixed in CP and HPC as described above and compressed into tablets. In a typical example, insulin zinc salt powder at 1% of the solids was added to the tablet composition and compressed into tablets. Insulin was released for 10 h from the tablets when placed in physiologic media. PLGA microspheres loaded with 50% insulin prepared by precipitation of concentrated alcoholic-dichloromethane solution into an anti-solvent, heptane. Particles at 10% of the non-active agents were added to the tablet powder and compressed into tablets. Anti-inflammatory protein such as Adiponectin, antimicrobial and antiviral proteins are also considered for buccal delivery.

[8] = pig, in vivo, iv, 1 mg/kg
Protocol: 2.1.7 In-vivo protocol of IV administration: Domestic female pigs (sus scrofa domesticus) of 35-40 kg were allowed to acclimate before the experiment. Pigs were fasted overnight before the experiments. On the morning of the experiment pigs were anesthetized by xylazine 1 mg/kg, midazolam 0.04 mg/kg, ketamine 5 mg/kg and propofol 4 mg/kg. Pigs were positioned on their back. Endotracheal tube was inserted, and pigs were respired with oxygen. […] Catheter was inserted into ear vein through which physiological saline was administered. Pigs received amoxicillin 15 mg/kg antibiotic and tolfenamic acid 2 mg/kg analgesic. An intra-jugular catheter was inserted for blood sampling. Pigs were constantly monitored for their respiration rate, rectal temperature, O2 saturation, heart rate and blood pressure. Cardiovascular parameters were obtained by blood pressure monitor with porcine adapted front leg cuff. […] Plasma was collected into tubes containing 10 µl mercaptoethanol and stored at -80° C. pending analysis. Isoflurane anesthesia was terminated, and pigs were recovered under veterinary surveillance to consciousness.
The samples were reconstituted in 100 µl 1:4 MeOH:DDW solution containing 0.01%^v/v formic acid and 0.1%^v/v mercaptoethanol and injected into LC-MS-MS system.
2.1.12 Chromatographic analysis of in-vivo samples: The chromatography was performed using a Shimadzu UHPLC System. The chromatographic separations were performed on a Kinetex™ (Phenomenex, CA, USA) column (EVO C18, 2.6 µm, 100 Å, 100 × 2.1 mm), protected by a SecurityGuard™ (Phenomenex, CA, USA) ULTRA cartridge (C18, 4 × 2 mm). The injection volume was 5 µl, temperature was 40° C.
Following this analysis PK parameters were obtained.

## Cn1c(=O)c2[nH]cnc2n(C)c1=O [TPH, theophylline]
[1]
  CL slower than CBD: ~ 50 fold
[2]
  log P: ~ 0
[3]; in vivo
  CL: 0.283 to 0.67 mL/min/kg
[4]; considering the molar dose administered
  TPH plateau higher than the highest plasma level of CBD: 300 fold
[4]; ~0.11 mg/kg TPH, 8.0 mg/ml, 1.58 cm^2, three pigs
  time to plateau of plasma levels (lag-time): 5 h

## COCCc1ccc(OCC(O)CNC(C)C)cc1 (centres unmarked) [MTP, metoprolol]
[5]
  Papp lower at pH 5.9 than at pH 7.4: 2 fold
[5]; female, pig, pH 7.4 with 3.33% v/v of 1:1 ethanol: propylene glycol solution, read-out: Apparent permeability (Papp)
  Papp: 7.24 ×10⁻⁶ cm/s
[5]; female, pig, simulated saliva pH 5.9, mean (±SD), read-out: Apparent permeability (Papp)
  Papp at 0.1 mM: 1.11 ×10⁻⁶ cm/s
[5]; female, pig, simulated saliva pH 7.4, standard 0.1 mM, mean (±SD), read-out: Apparent permeability (Papp)
  Papp at 0.1 mM: 2.48 ×10⁻⁶ cm/s
In vitro
  Papp at 6 h: 1.02 ×10⁻⁶ cm/s
  Papp at 6 h, 34 µg/ml: 9.89 ×10⁻⁶ cm/s

## C=C(C)[C@@H]1CCC(C)=C[C@H]1c1c(O)cc(CCCCC)cc1O [CBD, cannabidiol]
[6]; CBD with TPH
  Diastolic blood press (mmHg): 37 (29 - 46) mmHg
  Heart rate (beats/min): 98 (79 - 123) beats/min
  O2 satur (%): 99 (90 - 100) %
  Respiration rate (min^-1): 10 (10-13) min^-1
  Systolic blood press (mmHg): 77 (68 - 87) mmHg
[6]; CBD ~0.42 mg/kg with TPH ~0.11 mg/kg, three pigs
  Rectal temp (°C): 37.4 (36.8 - 38.8) °C
[2]
  aqueous solubility: ~ 12 µg/ml and ~ 0.04 mM
  log P: ~ 6
[3]; humans, IV administration
  steady state volume of distribution: 30 L/kg
[4]; ~0.42 mg/kg CBD, 30.0 mg/ml, 8 h exposure
  Css: not reached

## Insulin: insulin zinc salt powder at 1% of the solids in CP and HPC tablets
[7]
  duration of insulin release: 10 h

## CN1CCc2cccc3c2C1CC1=C3C(=O)C(=O)C=C1 (centres unmarked) [APO-quinone]
[8]
  half-lives of metabolites: 25.5 (±2.0) min

Source: patent publication US20230277449A1, “ORAL CAVITY POLYMERIC DELIVERY SYSTEMS” (YISSUM RESEARCH DEVELOPMENT COMPANY OF THE HEBREW …, priority 2020, published 2023)
